Measured values published in ChEMBL document CHEMBL1134423, “Synthesis and acetylcholinesterase inhibition of 5-desamino huperzine A derivatives” (Bioorg Med Chem Lett, 2001).

What was measured:
[1] = target: T1, Acetylcholinesterase (Rattus norvegicus, UniProt P37136); assay: Compound was tested for its ability to inhibit acetylcholinesterase (AChE) in rat brain; type: tissue-based
T1 sequence (P37136 whole entry): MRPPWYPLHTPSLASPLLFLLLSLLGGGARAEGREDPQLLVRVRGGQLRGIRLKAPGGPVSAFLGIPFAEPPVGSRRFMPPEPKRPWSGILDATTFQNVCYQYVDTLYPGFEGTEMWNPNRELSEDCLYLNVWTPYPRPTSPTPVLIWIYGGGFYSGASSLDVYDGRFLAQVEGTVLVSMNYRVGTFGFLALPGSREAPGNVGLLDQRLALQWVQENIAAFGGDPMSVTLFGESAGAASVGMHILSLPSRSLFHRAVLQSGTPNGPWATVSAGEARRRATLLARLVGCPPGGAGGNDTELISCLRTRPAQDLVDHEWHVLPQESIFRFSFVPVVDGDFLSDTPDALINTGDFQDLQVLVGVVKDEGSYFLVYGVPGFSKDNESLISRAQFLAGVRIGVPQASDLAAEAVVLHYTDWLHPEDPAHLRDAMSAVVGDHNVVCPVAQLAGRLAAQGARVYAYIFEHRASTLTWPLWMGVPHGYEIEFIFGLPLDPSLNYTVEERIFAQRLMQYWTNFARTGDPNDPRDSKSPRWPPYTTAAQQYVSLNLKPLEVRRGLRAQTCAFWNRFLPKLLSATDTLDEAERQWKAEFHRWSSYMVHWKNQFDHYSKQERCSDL

[2] = target: T1, Acetylcholinesterase

C/C=C1\C2C=C(C)CC1c1ccc(O)nc1C2 (configuration not stated)
IC50 [1]: 12.8 µM
Ki [1]: 2 µM

CC1=CC2Cc3nc(O)ccc3C(C1)C2=O (configuration not stated)
IC50 [1]: > 500 µM
Ki [1]: > 500 µM

C/C=C1/C2C=C(C)CC1c1ccc(=O)[nH]c1C2 (configuration not stated)
IC50 [1]: 55.5 µM
Ki [1]: 12.3 µM

C/C=C1\[C@H]2C=C(C)C[C@]1(N)c1ccc(=O)[nH]c1C2 [HUPERZINE A]
Ki [2]: 0.024 µM
